{"source": "patent US9504676B2", "about": "“Molecules inhibiting a metabolic pathway involving the Syk protein tyrosine kinase and method for identifying said molecules” (CENTRE NATIONAL DE LA RECHERCHE SCIENTIFIQUE, priority 2008, dated 2016)", "key": {"SLP-76": {"test_system": "SLP-76", "assay": "Phosphorylation of SLP-76 (phospho-specific antibodies)", "assay_type": "cell-based, rat", "settings": "RBL-2H3 cells"}, "p38 and JNK": {"test_system": "p38 and JNK", "assay": "MAP kinase activation: p38 and JNK phosphorylation levels", "assay_type": "cell-based", "settings": "high C-13 concentration", "method": "The association of SLP-76 with Vav and/or Nck plays a role in optimal MAP kinase activation in mast cells^27.\n• 1) Chemical products and antibodies. A chemical bank of 3000 molecules (a varied subset) was acquired from ChemBridge, Inc. (San Diego, Calif.). Stocks of solutions of small molecules were prepared at a rate of 10 mM in DMSO (dimethylsulphoxide), except for C-13 (methyl 2-{5-[(3-benzyl-4-oxo-2-thioxo-1,3-thiazolidin-5-ylidene)methyl]-2-furyl}benzoate, ChemBridge ID No. 6197026) prepared in DMF (dimethylformamide). Unless specified otherwise, all the reagents were supplied by Sigma. Dinitrophenyl (DNP) hapten was acquired from Calbiochem. Sepharose GammaBind G and all the secondary antibodies were supplied by GE Health Amersham Biosciences. […] The binding of G4G11 with Syk was assessed by adding the 9E10 monoclonal antibody conjugated with HRP detecting the amino acid sequence EQKLISEEDLN of human c-myc protein located at the C-terminal end of the scFv fragment. To generate Syk mutants, targeted mutagenesis was used on GST:Syk 6-242 protein and the binding of G4G11 with the mutants was assessed in the presence of 5 μM of C-13. • 3) Cells, culture conditions and functional tests. […] The level of β-hexosaminidase released was measured 10 min later and the TNF-α titration was performed by means of a cytotoxicity test on L929 cells as described previously^10, 3 hours after stimulation. […]"}}, "data": [{"smiles": "COC(=O)c1ccccc1-c1ccc(/C=C2/SC(=S)N(Cc3ccccc3)C2=O)o1", "note": "[Molecule C-13, methyl 2-{5-[(3-benzyl-4-oxo-2-thioxo-1,3-thiazolidin-5-ylidene)methyl]-2-furyl}benzoate]", "values": [{"measurement": "phosphorylation of SLP-76", "setting": "SLP-76", "value": "inhibits"}, {"measurement": "phosphorylation levels of p38 and JNK", "setting": "p38 and JNK", "value": "remain normal"}]}]}
